Reference: patent publication US20260176289A1, “SMALL MOLECULE INHIBITORS OF KRAS PROTEINS” (Merck Sharp & Dohme LLC, priority 2022, published 2026)

Columns and labels:
Format in all cases: biochemical
[1] = biological target: T1, KRAS G12V (amino acids 1-169) (Homo sapiens, UniProt P01116, G12V); test: SOS-catalyzed nucleotide exchange assay (Procedure B, BODIPY FL GDP displacement), KRAS G12V; conditions: read-out: KRAS G12V GNE IC50
T1 construct: made in house; host or cells: E. coli
Protocol: (§1) Procedure for SOS-Catalyzed Nucleotide Exchange Assay for KRAS-G12C/D/V/WT (Procedure B)
(§2) Recombinant KRAS G12C (amino acids 1-169, SEQ ID NO:9), KRAS G12D (amino acids 1-169, SEQ ID NO: 10), KRAS G12V (amino acids 1-169, SEQ ID NO: 11), KRAS WT (amino acids 1-169, SEQ ID NO:12) and SOS1 (amino acids 564-1049, SEQ ID NO: 13) proteins were expressed in E. coli and purified by affinity chromatography. To prepare each BODIPY™ FL GDP-bound KRAS protein, 50 μM KRAS proteins were incubated with 0.5 mM BODIPY™ FL GDP (Invitrogen, G22360) in a loading buffer (20 mM Tris-HCl pH 7.5, 50 mM NaCl, 1 mM DTT and 2.5 mM EDTA) for 1 hour on ice. After the incubation, MgCl2 was added to a final concentration of 10 mM, followed by an incubation at room temperature for 30 minutes. The mixtures were allowed to pass through a NAP-5 column to remove free nucleotides and purified BODIPY™ FL GDP-bound KRAS G12C, G12D, G12V and WT proteins were used for compound evaluation.
(§3) The inhibitory activity of compounds on recombinant KRAS is measured by the displacement of the bound BODIPY™ GDP. Specifically, 2.5 nM of each BODIPY™ FL GDP-bound KRAS complex was incubated with various concentrations of compound in a reaction buffer (20 mM Tris-HCl pH 7.5, 100 mM NaCl, 1 mM MgCl2, 2 mM DTT, 0.1% Tween 20) at 25° C. for 1 hour. After the incubation, recombinant SOS1 and GMPPNP (Jena Bioscience GmbH, NU-401) were added and incubated at room temperature for 30 minutes to proceed SOS1-dependent GDP-GTP exchange reaction on KRAS. Displacement of BODIPY™ FL GDP by Guanosine-5′-[(β,γ)-imido]triphosphate, Tetralithium salt (GMPPNP) was measured by calculating the ratio of fluorescence intensities of BODIPY™ FL before and after the exchange reaction. Percent Inhibition was calculated by setting the fluorescence ratio from the reaction without test compound (DMSO control) and the fluorescence ratio from the reaction without SOS1 and GMPPNP as 0% and 100% inhibition, respectively. Dose response curves were analyzed using a 4-parameter logistic model to calculate IC50 values.

[2] = biological target: T2, KRAS G12D (amino acids 1-169) (Homo sapiens, UniProt P01116, G12D); test: SOS-catalyzed nucleotide exchange assay (Procedure B, BODIPY FL GDP displacement), KRAS G12D; conditions: read-out: KRAS G12D GNE IC50
T2 construct: made in house; host or cells: E. coli
T2 sequence (P01116 with tags, fused parts or gaps isoform P01116-2 G12D): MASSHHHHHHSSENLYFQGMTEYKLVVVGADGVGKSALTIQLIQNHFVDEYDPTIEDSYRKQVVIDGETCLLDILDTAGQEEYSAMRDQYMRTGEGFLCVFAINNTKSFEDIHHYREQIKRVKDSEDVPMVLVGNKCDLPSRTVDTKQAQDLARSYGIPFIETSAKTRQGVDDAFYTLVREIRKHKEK
Protocol: as §1, §2, §3

[3] = biological target: T3, KRAS WT (amino acids 1-169) (Homo sapiens, UniProt P01116); test: SOS-catalyzed nucleotide exchange assay (Procedure B, BODIPY FL GDP displacement), KRAS WT; conditions: read-out: KRAS WT GNE IC50
T3 construct: made in house; host or cells: E. coli
T3 sequence (P01116 with tags, fused parts or gaps isoform P01116-2): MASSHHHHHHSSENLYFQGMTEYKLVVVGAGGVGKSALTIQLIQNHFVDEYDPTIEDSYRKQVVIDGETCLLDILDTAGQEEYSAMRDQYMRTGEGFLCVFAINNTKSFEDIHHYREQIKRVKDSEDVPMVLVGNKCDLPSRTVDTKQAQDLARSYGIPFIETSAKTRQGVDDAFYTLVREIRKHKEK
Protocol: as §1, §2, §3

[4] = biological target: T4, KRAS G12C (amino acids 1-169) (Homo sapiens, UniProt P01116, G12C); test: SOS-catalyzed nucleotide exchange assay (Procedure B, BODIPY FL GDP displacement), KRAS G12C; conditions: read-out: KRAS G12C GNE IC50
T4 construct: made in house; host or cells: E. coli
T4 sequence (P01116 with tags, fused parts or gaps isoform P01116-2 G12C): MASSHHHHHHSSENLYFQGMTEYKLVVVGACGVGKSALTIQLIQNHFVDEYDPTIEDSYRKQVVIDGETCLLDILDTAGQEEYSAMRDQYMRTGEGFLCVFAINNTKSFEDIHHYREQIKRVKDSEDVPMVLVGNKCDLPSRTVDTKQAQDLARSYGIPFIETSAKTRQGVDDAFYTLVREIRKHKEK
Protocol: as §1, §2, §3

T1 sequence (P01116 with tags, fused parts or gaps isoform P01116-2 G12V): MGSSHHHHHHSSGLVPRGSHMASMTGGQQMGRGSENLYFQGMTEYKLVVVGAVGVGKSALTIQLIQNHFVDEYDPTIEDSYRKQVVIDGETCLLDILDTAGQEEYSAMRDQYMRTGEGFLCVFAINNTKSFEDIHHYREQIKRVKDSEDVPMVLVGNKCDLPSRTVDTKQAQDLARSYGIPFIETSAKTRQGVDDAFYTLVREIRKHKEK

SMILES	IC50 [1] [nM]	IC50 [2] [nM]	IC50 [3] [nM]	IC50 [4] [nM]
Cc1cc2[nH]ncc2c(-c2nccc3c2sc2nc(OC[C@@]45CCCN4C[C@H](F)C5)nc(N4C[C@H](O)C[C@H]4C)c23)c1C(F)(F)F [Ex-183, (3R,5R)-1-(2-(((2R,7aS)-2-fluorotetrahydro-1H-pyrrolizin-7a(5H)-yl)methoxy)-8-(6-methyl-5-(trifluoromethyl)-1H-indazol-4-yl)pyrido[4′,3′: 4,5]thieno[2,3-d]pyrimi-din-4-yl)-5-methylpyrrol-idin-3-ol]	4640	2190	2990	2880
C[C@@]1(O)COCCN(c2nc(OC[C@@]34CCCN3C[C@H](F)C4)nc3sc4c(-c5c(-c6cnco6)c(Cl)cc6[nH]ncc56)nccc4c23)C1 [Ex-75, (6S)-4-(8-(6-chloro-5-(oxazol-5-yl)-1H-indazol-4-yl)-2-(((2R,7aS)-2-fluorotetrahydro-1H-pyrrolizin-7a(5H)-yl)methoxy)pyrido[4′,3′:4,5]thi-eno[2,3-d]pyrimidin-4-yl)-6-methyl-1,4-oxazepan-6-ol]	118	19.3	60.8	56
CC1c2c(cc3[nH]ncc3c2-c2nccc3c2sc2nc(OC[C@@]45CCCN4C[C@H](F)C5)nc(N4CCOC[C@@](C)(O)C4)c23)C(C)(C)C1(F)F (stereo partly drawn) [Ex-100, (6S)-4-(8-(6,6-difluoro-5,7,7-trimethyl-1,5,6,7-tetrahydrocyclopenta[f]in-dazol-4-yl)-2-(((2R,7aS)-2-fluorotetrahydro-1H-pyrrolizin-7a(5H)-yl)methoxy)pyrido[4′,3′: 4,5]thieno[2,3-d]pyrimidin-4-yl)-6-methyl-1,4-oxazepan-6-ol]	507	216	354	663
C[C@@]1(O)COCCN(c2nc(OC[C@@]34CCCN3C[C@H](F)C4)nc3sc4c(-c5c6c(cc7[nH]ncc57)CCC6C#N)nccc4c23)C1 (stereo partly drawn) [Ex-96, 4-(2-(((2R,7aS)-2-fluorotetrahydro-1H-pyrrolizin-7a(5H)-yl)methoxy)-4-((S)-6-hydroxy-6-methyl-1,4-oxazepan-4-yl)pyrido[4′,3′:4,5]thieno [2,3-d]pyrimidin-8-yl)-1,5,6,7-tetrahydrocyclopenta[f]in-dazole-5-carbonitrile]	105	43.8	125	193
CC(=O)c1c(C(F)(F)F)cc2[nH]ncc2c1-c1nccc2c1sc1nc(OC[C@@]34CCCN3C[C@H](F)C4)nc(N3CCOC[C@@](C)(O)C3)c12 [Ex-59]	125	71.9	112	183
C#Cc1n[nH]c2cc(C)c(C(F)(F)F)c(-c3nccc4c3sc3nc(OC[C@@]56CCCN5C[C@H](F)C6)nc(N5CCOC[C@@](C)(O)C5)c34)c12 [Ex-151, (6S)-4-(8-(3-ethynyl-6-methyl-5-(trifluoromethyl)-1H-indazol-4-yl)-2-(((2R,7aS)-2-fluorotetrahydro-1H-pyrrolizin-7a(5H)-yl)methoxy)pyrido[4′,3′:4,5]thieno[2,3-d]pyrimidin-4-yl)-6-methyl-1,4-oxazepan-6-ol]	1180	393	690	572
C#Cc1cccc2cccc(-c3nncc4c3sc3nc(OC[C@@]56CCCN5C[C@H](F)C6)nc(N5CCOC[C@@](C)(O)C5)c34)c12 [Ex-285]	1000	322	889	645
Cc1cc2[nH]ncc2c(-c2nccc3c2sc2nc(OC[C@@]45CCCN4C[C@H](F)C5)nc(N)c23)c1C(F)(F)F [Ex-189, 2-(((2R,7aS)-2-fluoro-tetrahydro-1H-pyrrolizin-7a(5H)-yl)methoxy)-8-(6-methyl-5-(trifluoromethyl)-1H-indazol-4-yl)pyrido [4′,3′:4,5]thieno[2,3-d] pyrimidin-4-amine]	2200	3010	2250	1360
Cc1cc2[nH]ncc2c(-c2nccn3c2c(C)c2nc(OC[C@@]45CCCN4C[C@H](F)C5)nc(N4CCOC[C@@](C)(O)C4)c23)c1C1CC1 [Ex-298, (S)-4-(9-(5-cyclopropyl-6-methyl-1H-indazol-4-yl)-2-(((2R,7aS)-2-fluorotetrahydro-1H-pyrrolizin-7a(5H)-yl)methoxy)-10-methylpyrazi-no[1′,2′:1,5]pyrrolo[3,2-d]pyrimidin-4-yl)-6-methyl-1,4-oxazepan-6-ol]	159	49.8	113	85.2

Now those with a lower IC50 [1], led by results:

IC50 [1] [nM]	IC50 [2] [nM]	IC50 [3] [nM]	IC50 [4] [nM]	SMILES
15.8	6.65	12.4	18	C#CC1CCc2cc3[nH]ncc3c(-c3nccc4c3sc3nc(OC[C@@]56CCCN5C[C@H](F)C6)nc(N5CCOC[C@@](C)(O)C5)c34)c21 (stereo partly drawn) [Ex-166, (6S)-4-(8-(5-ethyn-yl-1,5,6,7-tetrahydro-cyclopenta[f]indazol-4-yl)-2-(((2R,7aS)-2-fluorotetrahydro-1H-pyrrolizin-7a(5H)-yl)methoxy)-pyrido[4′,3′:4,5]thieno[2,3-d]pyr-imidin-4-yl)-6-meth-yl-1,4-oxazepan-6-ol]
60	43.9	71.5	168	C[C@@]1(O)COCCN(c2nc(OC[C@@]34CCCN3C[C@H](F)C4)nc3sc4c(-c5c6c(cc7[nH]ncc57)CCC6C5CC5)nccc4c23)C1 (stereo partly drawn) [Ex-104, (6S)-4-(8-(5-cyclopropyl-1,5,6,7-tetrahydrocyclopenta[f]in-dazol-4-yl)-2-(((2R,7aS)-2-fluorotetrahydro-1H-pyrrolizin-7a(5H)-yl)methoxy)pyrido[4′,3′:4,5]thieno[2,3-d]pyrimidin-4-yl)-6-methyl-1,4-oxazepan-6-ol]
7.19	3.16	8.37	9.73	COCC1CCc2cc3[nH]ncc3c(-c3nccc4c3sc3nc(OC[C@@]56CCCN5C[C@H](F)C6)nc(N5CCOC[C@@](C)(O)C5)c34)c21 (single isomer, unassigned) [Ex-97]
65	49.8	99.4	91.5	CCCC1CCc2cc3[nH]ncc3c(-c3nccc4c3sc3nc(OC[C@@]56CCCN5C[C@H](F)C6)nc(N5CCOC[C@@](C)(O)C5)c34)c21 (stereo partly shown) [Ex-95]
5.16	1.99	4	6.44	CC1CC(F)(F)c2cc3[nH]ncc3c(-c3nccc4c3sc3nc(OC[C@@]56CCCN5C[C@H](F)C6)nc(N5CCOC[C@@](C)(O)C5)c34)c21 (stereo partly drawn) [Ex-101, (6S)-4-(8-(7,7-difluoro-5-methy1-1,5,6,7-tetrahydrocyclopenta[f]in-dazol-4-yl)-2-(((2R,7aS)-2-fluorotetrahydro-1H-pyrrolizin-7a(5H)-yl)methoxy)pyrido[4′,3′:4,5]thi-eno[2,3-d]pyrimidin-4-yl)-6-methyl-1,4-oxazepan-6-ol]
42.1	30.6	50.9	48	C[C@H]1CN2C[C@H](F)C[C@@]2(COc2nc(N3CCOC[C@@](C)(O)C3)c3c(n2)sc2c(-c4c(C5CC5)c(Cl)cc5[nH]ncc45)nccc23)C1 [Ex-226, (6S)-4-(8-(6-chloro-5-cyclopropyl-1H-indazol-4-yl)-2-(((2R,6R,7aR)-2-fluoro-6-methyl-tetrahydro-1H-pyrrolizin-7a(5H)-yl)methoxy)pyrido [4′,3′:4,5]thieno[2,3-d]pyrimidin-4-yl)-6-methyl-1,4-oxaze-pan-6-ol]
4.2	1.68	3.82	5.33	CCC1CCc2cc3[nH]ncc3c(-c3nccc4c3sc3nc(OC[C@@]56CCCN5C/C(=C\F)C6)nc(N5CCOC[C@@](C)(O)C5)c34)c21 (stereo partly drawn) [Ex-94, (6S)-4-(8-(5-ethyl-1,5,6,7-tetrahydrocyclopenta[f]in-dazol-4-y1)-2-(((S,Z)-2-(fluoromethylene)tetrahy-dro-1H-pyrrolizin-7a(5H)-yl)methoxy)pyrido[4′,3':4,5]thi-eno[2,3-d]pyrimidin-4-y1)-6-methyl-1,4-oxazepan-6-ol]
